Activity calls are given as the source filed them. The rule behind the calls is not given here.
Key:
[1] = target: Replicase polyprotein 1ab (Severe acute respiratory syndrome coronavirus 2) (UniProt P0DTD1); assay: (§1) Inhibition of SARS-CoV-2 Nsp12-Nsp7-Nsp8-2 RNA dependent RNA polymerase activity using partially double stranded RNA as substrate assessed as generation of abortive transcripts by mis-incorporation into RNA at 100 uM incubated for 30 mins in presence of ATP by gel electrophoresis based primer extension assay
[2] = target: Replicase polyprotein 1ab (Severe acute respiratory syndrome coronavirus 2) (UniProt P0DTD1); assay: as §1, with “ATP and GTP/CTP” for “ATP”
[3] = target: Replicase polyprotein 1ab (Severe acute respiratory syndrome coronavirus 2) (UniProt P0DTD1); assay: (§2) Inhibition of SARS-CoV-2 Nsp12-Nsp7-Nsp8-2 RNA dependent RNA polymerase activity using partially double stranded RNA as substrate assessed as accumulation of abortive transcripts incubated for 30 mins in presence of UTP,ATP and GTP/CTP by gel electrophoresis based primer extension assay; conditions: dose 2.5-250 µM
[4] = test system: Severe acute respiratory syndrome coronavirus 2; assay: Inhibition of SARS-CoV-2 Nsp9/Nsp12 using 5'-pppLS10 as substrate assessed as inhibition of NiRAN-mediated UMPylation of Nsp9 at 1 to 100 uM preincubated for 5 mins followed by UTP and [alpha-32P]UTP addition and measured after 10 mins by phosphorimaging based SDS-PAGE analysis; conditions: dose 1-100 µM, time 15.0 min
[5] = test system: Severe acute respiratory syndrome coronavirus 2; assay: Inhibition of SARS-CoV-2 Nsp9/Nsp12 using 5'-pppLS10 as substrate assessed as inhibition of NiRAN-mediated AMPylation of Nsp9 at 1 to 100 uM preincubated for 5 mins followed by ATP and [alpha-32P]ATP addition and measured after 10 mins by phosphorimaging based SDS-PAGE analysis; conditions: dose 1-100 µM, time 15.0 min
[6] = test system: Severe acute respiratory syndrome coronavirus 2; assay: Inhibition of SARS-CoV-2 Nsp9/Nsp12 using 5'-pppLS10 as substrate assessed as inhibition of NiRAN-mediated RNAylation of Nsp9 by measuring increase in compound-conjugated Nsp9 incubated for 1 hrs by coomassie blue staining based SDS-PAGE analysis; conditions: dose 1-100 µM
[7] = target: Replicase polyprotein 1ab (Severe acute respiratory syndrome coronavirus 2) (UniProt P0DTD1); assay: as §1, with “as” for “as generation of abortive transcripts by”, “by measuring increase in abortive transcripts length” for “at 100 uM”; conditions: dose 1-100 µM
[8] = target: Replicase polyprotein 1ab (Severe acute respiratory syndrome coronavirus 2) (UniProt P0DTD1); assay: as §2, with “transcripts at 2.5 to 250 uM” for “transcripts”; conditions: dose 2.5-250 µM
[9] = target: Replicase polyprotein 1ab (Severe acute respiratory syndrome coronavirus 2) (UniProt P0DTD1); assay: Inhibition of SARS-CoV-2 Nsp12-Nsp7-Nsp8-2 RNA dependent RNA polymerase activity using partially double stranded RNA as substrate assessed as reduction in RNA elongation at 1 to 100 uM incubated for 30 mins in presence of UTP and GTP/CTP by gel electrophoresis based primer extension assay; conditions: dose 1-100 µM
[10] = target: Replicase polyprotein 1ab (Severe acute respiratory syndrome coronavirus 2) (UniProt P0DTD1); assay: as §1, with “UTP” for “ATP”
[11] = Cytotoxicity against African green monkey Vero cells assessed as reduction in cell viability incubated for 48 hrs by MTT assay; format: toxicity, cell-based; conditions: chlorocebus sabaeus
SARS-CoV-2 [12] = assay: Antiviral activity against SARS-CoV-2 infected in african green monkey Vero cells assessed as reduction in number of spike-protein expressing cells pre-infected for 30 mins followed by compound addition and measured 48 hrs post-infection by DAPI staining based immunofluorescence analysis; format: functional, organism-based; conditions: Severe acute respiratory syndrome coronavirus 2, Vero
[13] = Selectivity index, ratio of CC50 for cytotoxicity against African green monkey Vero cells to EC50 for antiviral activity against SARS-CoV-2 infected in african green monkey Vero cells assessed as reduction in number of spike-protein expressing cells; format: toxicity, cell-based; conditions: read-out: Ratio CC50/EC50
SARS-CoV-2 [14] = assay: (§3) Antiviral activity against SARS-CoV-2 infected in hACE2 expressing female B6.Cg-Tg(K18-ACE2)2Prlmn/J mouse model assessed as reduction in body weight loss at 50 mg/kg, po preadministered twice daily for 4 days at 8 hrs interval with four hours before and after viral challenge and measured 8 days post viral challenge; format: functional, organism-based; conditions: Severe acute respiratory syndrome coronavirus 2, time 8.0 day
SARS-CoV-2 [15] = assay: as §3, with “measured 14” for “measured 8”; format: functional, organism-based; conditions: Severe acute respiratory syndrome coronavirus 2, time 14.0 day
SARS-CoV-2 [16] = assay: Antiviral activity against SARS-CoV-2 infected in hACE2 expressing female B6.Cg-Tg(K18-ACE2)2Prlmn/J mouse model assessed as survival at 50 mg/kg, po preadministered twice daily for 4 days at 8 hrs interval with four hours before and after viral challenge and measured 14 days post viral challenge relative to control; format: functional; conditions: Severe acute respiratory syndrome coronavirus 2, 336 h, time 14 day
[17] = test system: Severe acute respiratory syndrome coronavirus 2; assay: Inhibition of SARS-CoV-2 Nsp9/Nsp12 using 5'-pppLS10 as substrate assessed as inhibition of NiRAN-mediated RNAylation of Nsp9 by measuring increase in compound-conjugated Nsp9 at 1 to 100 uM incubated for 1 hrs by coomassie blue staining based SDS-PAGE analysis; conditions: dose 1-100 µM
SARS-CoV-2 [18] = assay: Antiviral activity against SARS-CoV-2 infected in African green monkey Vero cells assessed as reduction in viral N protein level at 0.1 uM measured after 1 day by Western blot analysis; format: functional, organism-based; conditions: Severe acute respiratory syndrome coronavirus 2
[19] = target: Replicase polyprotein 1ab (Severe acute respiratory syndrome coronavirus 2) (UniProt P0DTD1); assay: as §1, with “UTP and GTP/CTP” for “ATP”

SMILES	CC50 at 48 h [11] [µM]	EC50 (SARS-CoV-2 [12]) [µM]	selectivity ratio [13]	other results
C[C@@]1(F)[C@H](O)[C@@H](COP(=O)(O)OP(=O)(O)OP(=O)(O)O)O[C@H]1n1ccc(=O)[nH]c1=O				inhibition ([1]; dose 100.0 µM, time 30.0 min): inactive; inhibition [2]: inactive
O=c1ccn([C@@H]2S[C@H](COP(=O)(O)OP(=O)(O)OP(=O)(O)O)[C@@H](O)[C@H]2O)c(=O)[nH]1				inhibition ([1]; 100 uM): Active; Compound Led To Rna Products Longer Than 20 Nucleotides But Did Not Reach 27-Mer Rna; inhibition [3]: Dose-dependent-effect; inhibition [4]: Active; inhibition [5]: Active; inhibition [6]: Dose-dependent-effect; inhibition [7]: Dose-dependent-effect; Transcripts Remained Below 27 Nucleotides
N#C[C@@]1(c2ccc3c(N)ncnn23)O[C@H](COP(=O)(O)OP(=O)(O)OP(=O)(O)O)[C@@H](O)[C@H]1O				inhibition [8]: Minimal_effect; inhibition [9]: Not active; Formation Of Full-Length 40-Mer Product Is Still Prevented; inhibition ([10]; dose 100.0 µM, time 30.0 min): Not active; Formation Of 27-Mer Product Observed
Cc1cn([C@@H]2S[C@H](CO)[C@@H](O)[C@H]2O)c(=O)[nH]c1=O	> 100	> 100		
Nc1ccn([C@@H]2S[C@H](CO)[C@@H](O)[C@H]2O)c(=O)n1	> 100	2.4	> 41.7	
CC(C)C(=O)OC[C@H]1O[C@@H](n2cc/c(=N\O)[nH]c2=O)[C@H](O)[C@@H]1O [MOLNUPIRAVIR]				Activity (SARS-CoV-2 [14]): Active; Activity (SARS-CoV-2 [15]): Active; survival at 50 mg/kg (SARS-CoV-2 [16]): 60%
C[C@@]1(F)[C@H](O)[C@@H](COP(=O)(O)OP(=O)(O)OP(=O)(O)O)O[C@H]1n1cnc2c(=O)[nH]c(N)nc21				inhibition [17]: Active
CC(C)OC(=O)[C@H](C)N[P@](=O)(OC[C@H]1S[C@@H](n2ccc(=O)[nH]c2=O)[C@H](O)[C@@H]1O)Oc1ccccc1	> 100	> 100		
CC(C)C(=O)OC[C@H]1S[C@@H](n2ccc(=O)[nH]c2=O)[C@H](O)[C@@H]1O	> 100	26.8	> 3.73	
Nc1nc2c(ncn2[C@@H]2S[C@H](CO)[C@@H](O)[C@H]2O)c(=O)[nH]1	> 100	48.3	> 2.07	
Nc1ncnc2c1ncn2[C@@H]1S[C@H](CO)[C@@H](O)[C@H]1O	94.3	8.82	10.7	
O=c1nc(NO)ccn1[C@@H]1O[C@H](CO)[C@@H](O)[C@H]1O [N-HYDROXYCYTIDINE]	38.6	1.03	37.5	Activity (SARS-CoV-2 [18]): Active
C[C@H](Cn1cnc2c(N)ncnc21)OCP(=O)(O)OP(=O)(O)OP(=O)(O)O				inhibition [19]: Active; Compound Produced A Primer Extension Of ~22 Nucleotides Similar To Atp Starvation Condition; inhibition ([10]; 100 uM): Active; Compound Produced A Primer Extension Of ~22 Nucleotides Similar To Atp Starvation Condition

— ChEMBL document CHEMBL6182943, “Identification of 4'-Thiouridine as an Orally Available Antiviral Agent Targeting Both RdRp and NiRAN Functions of SARS-CoV-2 Nsp12” (J Med Chem, 2025)
